Data: publication PMC11525196 (Nature, 2024)
Numbering of substitutions follows the chain as printed.

How the values were obtained:
Experiment in all cases: SPR steady-state affinity
Format in all cases: binding
[1] = biological target: T1, LYCHOS (GPR155) (Homo sapiens, UniProt Q7Z3F1, L177W)
T1 sequence (Q7Z3F1 1-870 L177W): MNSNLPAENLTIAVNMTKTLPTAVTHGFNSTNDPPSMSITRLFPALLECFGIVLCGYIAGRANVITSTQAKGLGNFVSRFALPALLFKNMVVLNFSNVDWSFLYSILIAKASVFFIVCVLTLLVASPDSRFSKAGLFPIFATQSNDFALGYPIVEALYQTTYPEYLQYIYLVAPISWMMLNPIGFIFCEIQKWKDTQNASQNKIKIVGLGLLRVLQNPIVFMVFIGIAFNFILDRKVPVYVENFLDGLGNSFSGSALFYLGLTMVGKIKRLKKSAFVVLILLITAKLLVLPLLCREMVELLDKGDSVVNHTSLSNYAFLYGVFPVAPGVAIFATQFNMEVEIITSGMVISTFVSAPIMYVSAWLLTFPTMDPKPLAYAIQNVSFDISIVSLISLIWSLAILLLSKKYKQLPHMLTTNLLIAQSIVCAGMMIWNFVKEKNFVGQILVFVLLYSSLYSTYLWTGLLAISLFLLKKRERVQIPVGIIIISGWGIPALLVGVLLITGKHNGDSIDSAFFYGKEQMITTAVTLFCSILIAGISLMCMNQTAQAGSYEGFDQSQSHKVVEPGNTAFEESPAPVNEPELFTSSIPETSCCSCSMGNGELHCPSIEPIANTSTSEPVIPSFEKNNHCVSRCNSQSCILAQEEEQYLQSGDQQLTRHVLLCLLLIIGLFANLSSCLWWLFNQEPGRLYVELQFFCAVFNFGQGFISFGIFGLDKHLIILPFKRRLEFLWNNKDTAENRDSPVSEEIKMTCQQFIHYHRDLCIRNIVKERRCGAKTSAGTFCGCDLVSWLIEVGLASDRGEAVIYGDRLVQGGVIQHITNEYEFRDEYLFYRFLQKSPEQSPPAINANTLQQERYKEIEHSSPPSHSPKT

[2] = biological target: T2, LYCHOS (GPR155) (Homo sapiens, UniProt Q7Z3F1, A148W)
T2 sequence (Q7Z3F1 1-870 A148W): T1 sequence (Q7Z3F1 1-870 L177W) with A148W, W177L

[3] = biological target: T3, LYCHOS (GPR155) (Homo sapiens, UniProt Q7Z3F1)
T3 sequence (Q7Z3F1 1-870): T1 sequence (Q7Z3F1 1-870 L177W) with W177L

[4] = biological target: T4, LYCHOS (GPR155) (Homo sapiens, UniProt Q7Z3F1, N145A)
T4 sequence (Q7Z3F1 1-870 N145A): T1 sequence (Q7Z3F1 1-870 L177W) with N145A, W177L

Kd [1]: 3.93 mM
Kd [2]: 3.38 mM
Kd [3]: 1.62 mM
Kd [4]: 5.49 mM
Structure (SMILES): O=C(O)Cc1c[nH]c2ccccc12 [IAA, Indole-3-acetic acid]
